According to the NIST ThermoML archive (doi:10.1021/je900676b):

Assay: heat capacity at constant pressure per volume
Settings: 10000 kPa, Liquid, Tian-Calvet differential microcalorimeter

CCCCCC[n+]1ccn(C)c1.O=S(=O)([N-]S(=O)(=O)C(F)(F)F)C(F)(F)F
Settings | heat capacity [J/K/m3]
325.02 K | 1953000
337.38 K | 1966000
349.75 K | 1972000
362.12 K | 1982000
374.48 K | 1989000
386.84 K | 2004000
399.19 K | 2009000
411.56 K | 2021000
423.91 K | 2034000
436.27 K | 2038000
448.63 K | 2053000
460.99 K | 2050000
473.35 K | 2051000
485.72 K | 2055000
498.09 K | 2067000
510.46 K | 2066000
522.84 K | 2081000
535.2 K | 2079000
547.56 K | 2096000
554.94 K | 2121000

CCCCCCCCn1cc[n+](C)c1.O=S(=O)([N-]S(=O)(=O)C(F)(F)F)C(F)(F)F
Settings | heat capacity [J/K/m3]
325 K | 1950000
337.36 K | 1964000
349.71 K | 1973000
362.07 K | 1984000
374.43 K | 1993000
386.8 K | 2004000
399.16 K | 2012000
411.52 K | 2018000
423.88 K | 2029000
436.25 K | 2036000
448.61 K | 2049000
460.97 K | 2049000
473.33 K | 2053000
485.69 K | 2056000
498.06 K | 2068000
510.42 K | 2069000
522.79 K | 2084000
535.15 K | 2082000
547.51 K | 2099000
554.94 K | 2098000
